# Results as given in patent US8729082B2, “Substituted imidazoquinoxalines” (Bayer Intellectual Property GmbH, priority 2009, dated 2014).
# Target: T1, human kinase Mps-1 (Homo sapiens, UniProt P33981)
# T1 construct: N-terminally GST-tagged human full length recombinant Mps-1 kinase; purchased Invitrogen, Karslruhe, Germany PV4071
# T1 sequence (P33981 1-857): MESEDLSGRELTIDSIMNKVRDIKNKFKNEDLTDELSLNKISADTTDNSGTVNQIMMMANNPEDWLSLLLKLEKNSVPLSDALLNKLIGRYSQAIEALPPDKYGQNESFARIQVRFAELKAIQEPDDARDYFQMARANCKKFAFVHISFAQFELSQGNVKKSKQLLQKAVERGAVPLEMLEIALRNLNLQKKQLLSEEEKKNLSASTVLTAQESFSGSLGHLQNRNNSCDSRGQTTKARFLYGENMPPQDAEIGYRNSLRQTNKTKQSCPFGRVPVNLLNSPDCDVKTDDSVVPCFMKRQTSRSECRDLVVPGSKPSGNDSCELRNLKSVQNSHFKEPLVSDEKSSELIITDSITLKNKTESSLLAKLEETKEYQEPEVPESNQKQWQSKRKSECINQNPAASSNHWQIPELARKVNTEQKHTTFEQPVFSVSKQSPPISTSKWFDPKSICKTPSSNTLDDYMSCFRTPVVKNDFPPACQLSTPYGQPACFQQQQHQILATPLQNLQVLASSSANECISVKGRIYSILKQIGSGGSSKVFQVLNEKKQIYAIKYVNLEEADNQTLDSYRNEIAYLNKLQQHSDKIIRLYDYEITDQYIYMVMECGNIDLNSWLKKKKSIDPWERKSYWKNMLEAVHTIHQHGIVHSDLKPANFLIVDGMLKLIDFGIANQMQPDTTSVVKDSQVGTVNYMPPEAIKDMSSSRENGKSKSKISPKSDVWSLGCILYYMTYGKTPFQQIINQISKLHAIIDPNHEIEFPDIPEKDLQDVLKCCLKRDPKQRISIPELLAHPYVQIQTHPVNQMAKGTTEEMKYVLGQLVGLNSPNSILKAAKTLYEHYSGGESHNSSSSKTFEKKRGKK
# Assay: Mps-1 kinase assay (HTRF)
# Assay type: biochemical
# Details: lowATP; mean; read-out: Mps1 lowATP mean IC50
# Outline: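 HTRF readout: EDTA-stopped reactions incubated 1 h with europium anti-phospho(Ser/Thr) antibody and streptavidin-XLent, emission ratio 665/620 nm after 350 nm excitation. Kinase step: compound pre-bound 15 min to ~1 nM GST-Mps-1, then 60 min at 22 °C with ATP and biotin-peptide substrate; inhibition scaled between no-inhibitor (0%) and no-enzyme (100%) controls.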
row,IC50 [nM],SMILES
1,4990,"CNC(=O)Nc1ccc(-c2cnc3c(NCCCn4ccnc4)nc4cc(C#N)ccc4n23)cc1 [Example 2-229, 1-[4-(7-cyano-4-{[3-(1H-imidazol-1-yl)propyl]amino}imidazo[1,2-a]quinoxalin-1-yl)phenyl]-3-methylurea]"
2,33,"Cc1cc2nc(NCCCCO)c3ncc(-c4ccc(C(=O)NC5CC5)c(Cl)c4)n3c2cc1C [Example 2-184, 2-chloro-N-cyclopropyl-4-{4-[(4-hydroxybutyl)amino]-7,8-dimethylimidazo[1,2-a]quinoxalin-1-yl}benzamide]"
3,251,"Cc1cc2nc(NCc3ccccn3)c3ncc(-c4ccc(C(=O)NC5CC5)c(Cl)c4)n3c2cc1C [Example 2-191, 2-chloro-N-cyclopropyl-4-{7,8-dimethyl-4-[(pyridin-2-ylmethyl)amino]imidazo[1,2-a]quinoxalin-1-yl}benzamide]"
4,117,"Cc1cc2nc(NCCCO)c3ncc(-c4ccc(C(=O)NC5CC5)c(Cl)c4)n3c2cc1C [Example 2-186, 2-chloro-N-cyclopropyl-4-{4-[(3-hydroxypropyl)amino]-7,8-dimethylimidazo[1,2-a]quinoxalin-1-yl}benzamide]"
5,5.22,"Cc1cc2nc(NCc3ccco3)c3ncc(-c4ccc(C(=O)NC5CC5)cc4)n3c2cc1C [Example 2-153, N-cyclopropyl-4-{4-[(furan-2-ylmethyl)amino]-7,8-dimethylimidazo[1,2-a]quinoxalin-1-yl}benzamide]"
6,34.1,"O=C(NC1CC1)c1ccc(-c2cnc3c(NCC4CC4)nc4cc(F)c(F)cc4n23)cc1 [Example 2-104, N-cyclopropyl-4-{4-[(cyclopropylmethyl)amino]-7,8-difluoroimidazo[1,2-a]quinoxalin-1-yl}benzamide]"
7,1040,"N#Cc1ccc2c(c1)nc(NCCCCO)c1ncc(-c3ccc(C(=O)NC4CC4)c(Cl)c3)n12 [Example 2-239, 2-chloro-4-{7-cyano-4-[(4-hydroxybutyl)amino]imidazo[1,2-a]quinoxalin-1-yl}-N-cyclopropylbenzamide]"
8,19.5,"Cc1cc2nc(NCc3ccccn3)c3ncc(-c4ccc(C(=O)NC5CC5)cc4)n3c2cc1C [Example 2-151, N-cyclopropyl-4-{7,8-dimethyl-4-[(pyridin-2-ylmethyl)amino]imidazo[1,2-a]quinoxalin-1-yl}benzamide]"
9,24.8,"N#Cc1ccc2c(c1)nc(NCc1ccco1)c1ncc(-c3ccc(C(=O)NC4CC4)cc3)n12 [Example 2-215, 4-{7-cyano-4-[(furan-2-ylmethyl)amino]imidazo[1,2-a]quinoxalin-1-yl}-N-cyclopropylbenzamide]"
10,127,"Cc1cc2nc(NCc3ccn(C)n3)c3ncc(-c4ccc(C(=O)NC5CC5)c(Cl)c4)n3c2cc1C [Example 2-198, 2-chloro-N-cyclopropyl-4-(7,8-dimethyl-4-{[(1-methyl-1H-pyrazol-3-yl)methyl]amino}imidazo[1,2-a]quinoxalin-1-yl)benzamide]"
11,28.8,"N#Cc1ccc2c(c1)nc(NCc1cccnc1)c1ncc(-c3ccc(C(=O)NC4CC4)cc3)n12 [Example 2-214, 4-{7-cyano-4-[(pyridin-3-ylmethyl)amino]imidazo[1,2-a]quinoxalin-1-yl}-N-cyclopropylbenzamide]"
12,50.7,"COCCCNc1nc2cc(C#N)ccc2n2c(-c3ccc(C(=O)NC4CC4)cc3)cnc12 [Example 2-218, 4-{7-cyano-4-[(3-methoxypropyl)amino]imidazo[1,2-a]quinoxalin-1-yl}-N-cyclopropylbenzamide]"
13,361,"CC(C)CNc1nc2ccccc2n2c(-c3ccc(C(=O)Nc4cccc(NC(=O)c5cccnc5)c4)cc3)cnc12 [Example 3-28, N-{3-[(4-{4-[(2-methylpropyl)amino]imidazo[1,2-a]quinoxalin-1-yl}benzoyl)amino]phenyl}pyridine-3-carboxamide]"
14,12.4,"Cc1cc2nc(NC[C@@H](O)CO)c3ncc(-c4ccc(C(=O)NC5CC5)cc4)n3c2cc1C (stereo in doubt) [Example 2-158, N-cyclopropyl-4-{4-[(2,3-dihydroxypropyl)amino]-7,8-dimethylimidazo[1,2-a]quinoxalin-1-yl}benzamide]"
15,5870,"CC(C)CNc1nc2ccccc2n2c(-c3ccc(C(=O)NCCc4ccncc4)cc3)cnc12 [Example 3-16, 4-{4-[(2-methylpropyl)amino]imidazo[1,2-a]quinoxalin-1-yl}-N-[2-(pyridin-4-yl)ethyl]benzamide]"

# More lines, now with the values behind:
row,SMILES,IC50 [nM]
1,"O=C(NC1CC1)c1ccc(-c2cnc3c(NCCCc4ccccc4)nc4ccccc4n23)cc1 [Example 2-27, N-cyclopropyl-4-{4-[(3-phenylpropyl)amino]imidazo[1,2-a]quinoxalin-1-yl}benzamide]",282
2,"COc1ccc(CCNc2nc3ccccc3n3c(-c4ccc(C(=O)NC5CC5)cc4)cnc23)cc1 [Example 2-17, N-cyclopropyl-4-(4-{[2-(4-methoxyphenyl)ethyl]amino}imidazo[1,2-a]quinoxalin-1-yl)benzamide]",565
3,"CCCCNc1nc2ccc(F)cc2n2c(-c3ccc(C(=O)NC4CC4)cc3)cnc12 [Example 2-51, 4-[4-(butylamino)-8-fluoroimidazo[1,2-a]quinoxalin-1-yl]-N-cyclopropylbenzamide]",39.2
4,"O=C(NC1CC1)c1ccc(-c2cnc3c(NCCCCO)nc4cc(F)c(F)cc4n23)cc1 [Example 2-96, N-cyclopropyl-4-{7,8-difluoro-4-[(4-hydroxybutyl)amino]imidazo[1,2-a]quinoxalin-1-yl}benzamide]",59.5
5,"Cn1nccc1CNc1nc2ccc(F)cc2n2c(-c3ccc(C(=O)NC4CC4)c(Cl)c3)cnc12 [Example 2-85, 2-chloro-N-cyclopropyl-4-(8-fluoro-4-{[(1-methyl-1H-pyrazol-5-yl)methyl]amino}imidazo[1,2-a]quinoxalin-1-yl)benzamide]",761
6,"Cn1cc(CNc2nc3ccc(F)cc3n3c(-c4ccc(C(=O)NC5CC5)cc4)cnc23)cn1 [Example 2-58, N-cyclopropyl-4-(8-fluoro-4-{[(1-methyl-1H-pyrazol-4-yl)methyl]amino}imidazo[1,2-a]quinoxalin-1-yl)benzamide]",105
7,"CNC(=O)Nc1ccc(-c2cnc3c(NCCOC)nc4ccc(F)cc4n23)cc1 [Example 2-61, 1-(4-{8-fluoro-4-[(2-methoxyethyl)amino]imidazo[1,2-a]quinoxalin-1-yl}phenyl)-3-methylurea]",7220
8,"Cc1ccccc1CNc1nc2ccccc2n2c(-c3ccc(C(=O)NC4CC4)cc3)cnc12 [Example 2-6, N-cyclopropyl-4-{4-[(2-methylbenzyl)amino]imidazo[1,2-a]quinoxalin-1-yl}benzamide]",232
9,"COc1cc(C(=O)NC2CCN(C)CC2)ccc1Nc1nc2ccccc2n2c(-c3ccc(C(=O)NC4CC4)cc3)cnc12 [Example 2-39, 4-({1-[4-(cyclopropylcarbamoyl)phenyl]imidazo[1,2-a]quinoxalin-4-yl}amino)-3-methoxy-N-(1-methylpiperidin-4-yl)benzamide]",786
10,"O=C(NC1CC1)c1ccc(-c2cnc3c(NCCc4cccnc4)nc4ccccc4n23)cc1 [Example 2-36, N-cyclopropyl-4-(4-{[2-(pyridin-3-yl)ethyl]amino}imidazo[1,2-a]quinoxalin-1-yl)benzamide]",129
11,"O=C(NC1CC1)c1ccc(-c2cnc3c(NCCO)nc4ccc(F)cc4n23)cc1 [Example 2-41, N-cyclopropyl-4-{8-fluoro-4-[(2-hydroxyethyl)amino]imidazo[1,2-a]quinoxalin-1-yl}benzamide]",212
12,"CNC(=O)c1cccc(-c2cnc3c(NCC(C)C)nc4ccccc4n23)c1 [Example 1-20, N-methyl-3-{4-[(2-methylpropyl)amino]imidazo[1,2-a]quinoxalin-1-yl}benzamide]",17400
13,"CC(C)CNc1nc2ccccc2n2c(-c3ccc(NC(=O)Nc4ccc(CN5CCN(C)CC5)c(C(F)(F)F)c4)cc3)cnc12 [Example 1-1, 1-[4-(4-isobutylamino-imidazo[1,2-a]quinoxalin-1-yl)-phenyl]-3-[4-(4-methyl-piperazin-1-ylmethyl)-3-trifluoromethyl-phenyl]-urea]",55.9
14,"COc1ccc(-c2cnc3c(NCC(C)C)nc4ccccc4n23)c(C)c1 [Example 1-30, 1-(4-methoxy-2-methylphenyl)-N-(2-methylpropyl)imidazo[1,2-a]quinoxalin-4-amine]",15300
15,"CC(C)CNc1nc2ccccc2n2c(-c3ccc(C(=O)O)cc3)cnc12 [Example 1-5, 4-{4-[(2-methylpropyl)amino]imidazo[1,2-a]quinoxalin-1-yl}benzoic acid]",11900
